Results on 17 molecules are retold here after patent US5665586A, “Protease from Streptomyces fradiae” (Shionogi & Co., Ltd., priority 1992, dated 1997).

For assay [1], the target named is T1, SFase (Streptomyces fradiae, UniProt Q03424). Description: Substrate specificity of SFase on synthetic pNA substrates (p-nitroaniline release, A410 nm). Type of assay: biochemical. Particulars: 50 mM Tris-HCl, 2 mM CaCl2, pH 7.5, 25° C. The protocol:
1. […] The present enzyme was added thereto to cause a reaction at a temperature of 25° C. By measuring the absorbance (410 nm) of p-nitroaniline released through the enzymatic reaction into the reaction solution, the amount (A410 nm) of p-nitroaniline released per mg each substrate per 1 minute was calculated.

Assay [2] deals with T1, SFase. The assay is described as follows: Effect of inhibitors on SFase (residual activity, substrate Z-Phe-Leu-Glu-pNA). Type of assay: biochemical.
Where [3] appears, read: inhibitor 0.5 mM, preincubation 37° C., 1 hour, enzyme 1.0 μg/ml, 0.2 mM Z-Phe-Leu-Glu-pNA, pH 7.5, 25° C., read-out: Residual Activity (%).
Setting [4] is: pH 7.5, read-out: Residual Activity (%).

SMILES strings stand for the structures. Where two headings read alike, the source gives them in different places. Where a SMILES comes first, the peptide text is derived from it. The star is where a group is joined. pNA = O=[N+]([O-])c1ccc(N*)cc1; Cbz = O=C(OCc1ccccc1)*; Boc = CC(C)(C)OC(=O)*; CH2Cl = ClC*

T1 sequence (Q03424 171-357): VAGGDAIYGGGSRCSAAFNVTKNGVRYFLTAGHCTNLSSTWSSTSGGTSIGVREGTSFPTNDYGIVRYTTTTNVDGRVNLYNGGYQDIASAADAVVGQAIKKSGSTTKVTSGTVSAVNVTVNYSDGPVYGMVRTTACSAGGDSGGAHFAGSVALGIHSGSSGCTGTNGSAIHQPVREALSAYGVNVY

In the case of `O=C(N[C@@H](Cc1c[nH]c2ccccc12)C(=O)Nc1ccc([N+](=O)[O-])cc1)OCc1ccccc1` [Z--Trp--pNA], in assay [1] (substrate 0.20 mM, DMF 2.0%), the “amount (A410 nm) of p-nitroaniline released per mg per 1 minute” value is 0 A 410 nm /mg/min. As for `C[C@H](NC(=O)CCC(=O)O)C(=O)N[C@@H](C)C(=O)N[C@@H](C)C(=O)Nc1ccc([N+](=O)[O-])cc1` [Suc--Ala--Ala--Ala--pNA], the “amount (A410 nm) of p-nitroaniline released per mg per 1 minute” value in assay [1] (substrate 0.20 mM, no solvent) amounted to 0 A 410 nm /mg/min.

In the case of `CC(C)C[C@H](NC(=O)[C@H](Cc1ccccc1)NC(=O)OCc1ccccc1)C(=O)N[C@@H](CCC(=O)O)C(=O)Nc1ccc([N+](=O)[O-])cc1` [Z--Phe--Leu--Glu--pNA, Z-Phe-Leu-Glu-pNA] (Cbz-Phe-Leu-Glu-pNA), in assay [1] (substrate 0.20 mM, DMF 0.2%), the “amount (A410 nm) of p-nitroaniline released per mg per 1 minute” value is 319.1 A 410 nm /mg/min.

As for `Cc1ccc(S(=O)(=O)N[C@@H](Cc2ccccc2)C(=O)CCl)cc1` [TPCK, Tosyl-Phe-chloromethylketone], the “inhibition of SFase (in words)” value in assay [2] (Table 2) is given as “inhibited by neither”. Moreover, in assay [2] (setting [3]), the remaining activity at 500 µM was 101%.

`CC(C)C[C@H](NC(=O)[C@H](C)NC(=O)[C@H](C)NC(=O)OCc1ccccc1)C(=O)Nc1ccc([N+](=O)[O-])cc1` [Z--Ala--Ala--Leu--pNA] (Cbz-Ala-Ala-Leu-pNA): the “amount (A410 nm) of p-nitroaniline released per mg per 1 minute” value in assay [1] (substrate 0.125 mM, DMF 5.0%) stood at 0 A 410 nm /mg/min. With `Cc1ccc(S(=O)(=O)N[C@@H](CCCCN)C(=O)CCl)cc1` [TLCK, Tosyl-Lys-chloromethylketone], the “inhibition of SFase (in words)” value in assay [2] is “inhibited by neither”. Further, the remaining activity at 500 µM in assay [2] (setting [4]) was determined as 112%.

Turning to `C[C@H](NC(=O)[C@H](C)NC(=O)[C@H](C)NC(=O)OC(C)(C)C)C(=O)CCl` [Boc--Ala--Ala--Ala--CK], the remaining activity at 500 µM in assay [2] (setting [3]) was found to be 102%.

Consider `C[C@H](NC(=O)OC(C)(C)C)C(=O)N[C@@H](C)C(=O)N[C@@H](CCC(=O)O)C(=O)Nc1ccc([N+](=O)[O-])cc1` [Boc--Ala--Ala--Glu--pNA] (Boc-Ala-Ala-Glu-pNA), for which the “amount (A410 nm) of p-nitroaniline released per mg per 1 minute” value in assay [1] (substrate 0.20 mM, DMF 2.0%) was found to be 126.2 A 410 nm /mg/min.

For `O=C(O)CN(CCN(CC(=O)O)CC(=O)O)CC(=O)O` [EDTA, ethylenediaminetetraacetic acid], the “inhibition of SFase (in words)” value in assay [2] is “not inhibited”. For the same molecule, in assay [2] (setting [4]), the remaining activity at 100 µM came out at 110%, the remaining activity at 1000 µM came out at 113% and the remaining activity at 10000 µM was determined as 126%. On to `CC(C)C[C@H](NC(=O)[C@H](Cc1ccccc1)NC(=O)OC(C)(C)C)C(=O)N[C@@H](CCC(=O)O)C(=O)CCl` [Boc-Phe-Leu-Glu-chloromethylketone] (Boc-Phe-Leu-Glu-CH2Cl), for which, in assay [2] (Table 2), the “inhibition of SFase (in words)” value is given as “completely inhibited”. As for `CC(C)C[C@H](N)C(=O)Nc1ccc([N+](=O)[O-])cc1` [Leu--pNA], in assay [1] (substrate 2.00 mM, no solvent), the “amount (A410 nm) of p-nitroaniline released per mg per 1 minute” value amounted to 0 A 410 nm /mg/min.

On to `O=C(CNC(=O)OCc1ccccc1)N[C@@H](CO)C(=O)Nc1ccc([N+](=O)[O-])cc1` [Z--Gly--Ser--pNA] (Cbz-Gly-Ser-pNA), for which the “amount (A410 nm) of p-nitroaniline released per mg per 1 minute” value in assay [1] (substrate 0.20 mM, DMF 2.0%) was found to be 0 A 410 nm /mg/min. With `O=C(N[C@@H](Cc1ccc(O)cc1)C(=O)Nc1ccc([N+](=O)[O-])cc1)c1ccccc1` [Bz--Tyr--pNA], in assay [1] (substrate 0.02 mM, DMF 2.0%), the “amount (A410 nm) of p-nitroaniline released per mg per 1 minute” value came out at 0 A 410 nm /mg/min. As for `CC(C)C[C@H](NC(=O)[C@H](Cc1ccccc1)NC(=O)OCc1ccccc1)C(=O)N[C@@H](CCC(=O)O)C(=O)CCl` [Z--Phe--Leu--Glu--CK] (Cbz-Phe-Leu-Glu-CH2Cl), the remaining activity at 500 µM in assay [2] (setting [3]) was determined as 0%.

For `c1cnc2c(c1)ccc1cccnc12` [OP, o-phenanthroline], in assay [2] (Table 2), the “inhibition of SFase (in words)” value is “not inhibited”. Further, the remaining activity at 100 µM in assay [2] (inhibitor 0.1 mM, preincubation 37° C., 1 hour, enzyme 1.0 μg/ml, 0.2 mM Z-Phe-Leu-Glu-pNA, pH 7.5, 25° C., read-out: Residual Activity (%)) is 106%. The remaining activity at 1000 µM in assay [2] (inhibitor 1.0 mM, preincubation 37° C., 1 hour, enzyme 1.0 μg/ml, 0.2 mM Z-Phe-Leu-Glu-pNA, pH 7.5, 25° C., read-out: Residual Activity (%)) was 108%. The remaining activity at 10000 µM in assay [2] (inhibitor 10.0 mM, preincubation 37° C., 1 hour, enzyme 1.0 μg/ml, 0.2 mM Z-Phe-Leu-Glu-pNA, pH 7.5, 25° C., read-out: Residual Activity (%)) amounted to 104%. Take `N=C(N)NCCC[C@H](NC(=O)c1ccccc1)C(=O)Nc1ccc([N+](=O)[O-])cc1` [Bz--Arg--pNA]: in assay [1] (substrate 0.50 mM, DMSO 1.0%), the “amount (A410 nm) of p-nitroaniline released per mg per 1 minute” value is listed as 0 A 410 nm /mg/min. Turning to `C[C@H](NC(=O)OC(C)(C)C)C(=O)N[C@@H](C)C(=O)N[C@@H](CC(=O)O)C(=O)Nc1ccc([N+](=O)[O-])cc1` [Boc--Ala--Ala--Asp--pNA] (Boc-Ala-Ala-Asp-pNA), the “amount (A410 nm) of p-nitroaniline released per mg per 1 minute” value in assay [1] (substrate 0.20 mM, DMF 2.0%) came to 14.3 A 410 nm /mg/min.
